{
  "source": "ChEMBL document CHEMBL1135087",
  "about": "“Synthesis and biological evaluation of novel thio-substituted chromanes as high-affinity partial agonists for the estrogen receptor” (Bioorg Med Chem Lett, 2002)",
  "key": {"Ishikawa": {"tested_on": "Ishikawa", "test": "cells", "settings": "Homo sapiens", "description": "Stimulation of alkaline phosphatase activity in Ishikawa human endometrial adenocarcinoma cells"}, "Estrogen receptor [1]": {"biological_target": "T1, Estrogen receptor (Homo sapiens, UniProt Q92731+P03372)"}, "Estrogen receptor [2]": {"biological_target": "T1, Estrogen receptor", "test": "Displacement of [3H]17-beta-estradiol from Estrogen receptor of rabbit uterine tissue", "assay_type": "protein assay, Oryctolagus cuniculus", "settings": "target entry is the homologue from another species"}},
  "data": [
    {"smiles": "Oc1ccc2c(c1)OC[C@H](c1ccccc1)[C@@H]2c1ccc(OCCN2CCCC2)cc1", "note": "(racemic)", "values": [
      {"measurement": "EC50", "setting": "Ishikawa", "value": 0.9, "unit": "nM"},
      {"measurement": "IC50", "setting": "Estrogen receptor [1]", "value": 19, "unit": "nM"}
    ]},
    {"smiles": "C#C[C@]1(O)CC[C@H]2C3CCc4cc(O)ccc4[C@H]3[C@@H](OC)C[C@@]21C", "note": "(single isomer, unassigned) [MOXESTROL]", "values": [
      {"measurement": "EC50", "setting": "Ishikawa", "value": 0.08, "unit": "nM"},
      {"measurement": "IC50", "setting": "Estrogen receptor [2]", "value": 2.9, "unit": "nM"}
    ]},
    {"smiles": "Oc1ccc2c(c1)OC[C@H](c1ccccc1)[C@@H]2c1ccc(SCCN2CCCCC2)cc1", "note": "(racemic)", "values": [
      {"measurement": "EC50", "setting": "Ishikawa", "value": 1.8, "unit": "nM"},
      {"measurement": "IC50", "setting": "Estrogen receptor [1]", "value": 9.7, "unit": "nM"}
    ]},
    {"smiles": "COc1ccc2c(c1)OC(C)(C)[C@@H](c1ccccc1)[C@@H]2c1ccc(OCCN2CCCC2)cc1", "note": "[LEVORMELOXIFENE]", "values": [
      {"measurement": "EC50", "setting": "Ishikawa", "value": 13, "unit": "nM"},
      {"measurement": "IC50", "setting": "Estrogen receptor [1]", "value": 73, "unit": "nM"}
    ]},
    {"smiles": "CC/C(=C(\\c1ccc(I)cc1)c1ccc(OCCN2CCCC2)cc1)c1ccccc1", "note": "[IDOXIFENE]", "values": [
      {"measurement": "EC50", "setting": "Ishikawa", "value": 7, "unit": "nM"},
      {"measurement": "IC50", "setting": "Estrogen receptor [1]", "value": 7.5, "unit": "nM"}
    ]},
    {"smiles": "O=C(c1ccc(OCCN2CCCCC2)cc1)c1c(-c2ccc(O)cc2)sc2cc(O)ccc12", "note": "[RALOXIFENE]", "values": [
      {"measurement": "EC50", "setting": "Ishikawa", "value": 0.04, "unit": "nM"}
    ]},
    {"smiles": "Cl.Oc1ccc2c(c1)OC[C@H](c1ccccc1)[C@@H]2c1ccc(SCCN2CCCC2)cc1", "note": "(racemic)", "values": [
      {"measurement": "EC50", "setting": "Ishikawa", "value": 0.5, "unit": "nM"},
      {"measurement": "IC50", "setting": "Estrogen receptor [1]", "value": 6.5, "unit": "nM"}
    ]},
    {"smiles": "Oc1ccc2c(c1)OC[C@H](c1ccccc1)[C@@H]2c1ccc(OCCN2CCCCC2)cc1", "note": "(racemic)", "values": [
      {"measurement": "EC50", "setting": "Ishikawa", "value": 0.7, "unit": "nM"},
      {"measurement": "IC50", "setting": "Estrogen receptor [1]", "value": 3.1, "unit": "nM"}
    ]}
  ]
}
